Experiment: xn = mol fraction of the nth substance listed

CC(=O)N(C)C + CO
viscosity [mPa·s], 101 kPa
Conditions	303.15 K	308.15 K	313.15 K	318.15 K
x1 = 0.0976	0.572	–	–	–
x1 = 0.1993	0.626	–	–	–
x1 = 0.2967	0.673	–	–	–
x1 = 0.3971	0.712	–	–	–
x1 = 0.4998	0.75	–	–	–
x1 = 0.5962	0.78	–	–	–
x1 = 0.648	0.795	–	–	–
x1 = 0.7762	0.829	–	–	–
x1 = 0.8699	0.846	–	–	–
x2 = 0.125	0.872	0.795	0.737	0.693
x2 = 0.232	0.856	0.784	0.725	0.675
x2 = 0.324	0.832	0.763	0.709	0.655
x2 = 0.405	0.797	0.733	0.682	0.625
x2 = 0.644	0.697	0.647	0.598	0.539
x2 = 0.915	0.567	0.531	0.492	0.431
x2 = 0.939	0.544	0.507	0.471	0.413
x2 = 0.961	0.529	0.494	0.458	0.398

CCCCCCCCCO + CO
viscosity [mPa·s], 101 kPa
Conditions	298.15 K	308.15 K	318.15 K
x2 = 0.05	8.515	6.146	4.44
x2 = 0.1	7.93	5.765	4.2
x2 = 0.15	7.356	5.387	3.958
x2 = 0.2	6.793	5.013	3.716
x2 = 0.25	6.245	4.644	3.474
x2 = 0.3	5.711	4.281	3.233
x2 = 0.35	5.193	3.925	2.994
x2 = 0.4	4.694	3.579	2.756
x2 = 0.45	4.214	3.242	2.521
x2 = 0.5	3.754	2.916	2.29
x2 = 0.55	3.317	2.603	2.063
x2 = 0.6	2.902	2.302	1.841
x2 = 0.65	2.511	2.016	1.625
x2 = 0.7	2.146	1.744	1.417
x2 = 0.75	1.807	1.488	1.215
x2 = 0.8	1.496	1.248	1.023
x2 = 0.85	1.212	1.025	0.8404
x2 = 0.9	0.9583	0.8198	0.6684
x2 = 0.95	0.7342	0.6326	0.508

CC(=O)N(C)C + COC(=O)OC
298.15 K, 101 kPa
Conditions	viscosity [mPa·s]
x2 = 0.0376	0.937
x2 = 0.0836	0.914
x2 = 0.1443	0.887
x2 = 0.2234	0.854
x2 = 0.3348	0.807
x2 = 0.4705	0.757
x2 = 0.5544	0.726
x2 = 0.6212	0.702
x2 = 0.6902	0.679
x2 = 0.7541	0.659
x2 = 0.8244	0.636
x2 = 0.9102	0.608

CCCCCCCCCO + COC(=O)OC
Conditions	viscosity [mPa·s]
293.15 K, 101 kPa, x1 = 0.008	0.63
293.15 K, 101 kPa, x2 = 0.06435	9.044
293.15 K, 101 kPa, x2 = 0.1251	7.282
293.15 K, 101 kPa, x2 = 0.2318	5.067
293.15 K, 101 kPa, x2 = 0.322	3.834
293.15 K, 101 kPa, x2 = 0.4095	2.962
293.15 K, 101 kPa, x2 = 0.4994	2.281
293.15 K, 101 kPa, x2 = 0.6032	1.706
293.15 K, 101 kPa, x2 = 0.699	1.3
293.15 K, 101 kPa, x2 = 0.7961	0.991
293.15 K, 101 kPa, x2 = 0.8901	0.776
303.15 K, 100 kPa, x2 = 0.1	5.632
303.15 K, 100 kPa, x2 = 0.1999	4.161
303.15 K, 100 kPa, x2 = 0.3	3.081
303.15 K, 100 kPa, x2 = 0.4	2.342
303.15 K, 100 kPa, x2 = 0.5	1.81
303.15 K, 100 kPa, x2 = 0.6	1.384
303.15 K, 100 kPa, x2 = 0.7	1.06
303.15 K, 100 kPa, x2 = 0.8	0.831
303.15 K, 100 kPa, x2 = 0.9	0.658
303.15 K, 101 kPa, x1 = 0.00584	0.55
303.15 K, 101 kPa, x2 = 0.04989	6.721
303.15 K, 101 kPa, x2 = 0.1183	5.358
303.15 K, 101 kPa, x2 = 0.2164	3.942
303.15 K, 101 kPa, x2 = 0.3115	2.991
303.15 K, 101 kPa, x2 = 0.4106	2.28
303.15 K, 101 kPa, x2 = 0.4935	1.832
303.15 K, 101 kPa, x2 = 0.6036	1.368
303.15 K, 101 kPa, x2 = 0.7016	1.059
303.15 K, 101 kPa, x2 = 0.7951	0.835
303.15 K, 101 kPa, x2 = 0.8982	0.657
308.15 K, 100 kPa, x2 = 0.1	4.801
308.15 K, 100 kPa, x2 = 0.1999	3.592
308.15 K, 100 kPa, x2 = 0.3	2.702
308.15 K, 100 kPa, x2 = 0.4	2.074
308.15 K, 100 kPa, x2 = 0.5	1.627
308.15 K, 100 kPa, x2 = 0.6	1.253
308.15 K, 100 kPa, x2 = 0.7	0.972
308.15 K, 100 kPa, x2 = 0.8	0.769
308.15 K, 100 kPa, x2 = 0.9	0.617
313.15 K, 100 kPa, x2 = 0.1	4.133
313.15 K, 100 kPa, x2 = 0.1999	3.123
313.15 K, 100 kPa, x2 = 0.3	2.398
313.15 K, 100 kPa, x2 = 0.4	1.848
313.15 K, 100 kPa, x2 = 0.5	1.467
313.15 K, 100 kPa, x2 = 0.6	1.141
313.15 K, 100 kPa, x2 = 0.7	0.893
313.15 K, 100 kPa, x2 = 0.8	0.713
313.15 K, 100 kPa, x2 = 0.9	0.579
313.15 K, 101 kPa, x1 = 0.00538	0.492
313.15 K, 101 kPa, x2 = 0.06799	4.566
313.15 K, 101 kPa, x2 = 0.1245	3.835
313.15 K, 101 kPa, x2 = 0.2254	2.876
313.15 K, 101 kPa, x2 = 0.2945	2.39
313.15 K, 101 kPa, x2 = 0.433	1.677
313.15 K, 101 kPa, x2 = 0.5255	1.342
313.15 K, 101 kPa, x2 = 0.6009	1.118
313.15 K, 101 kPa, x2 = 0.6997	0.882
313.15 K, 101 kPa, x2 = 0.8024	0.702
313.15 K, 101 kPa, x2 = 0.9014	0.571
318.15 K, 100 kPa, x2 = 0.1	3.586
318.15 K, 100 kPa, x2 = 0.1999	2.735
318.15 K, 100 kPa, x2 = 0.3	2.137
318.15 K, 100 kPa, x2 = 0.4	1.662
318.15 K, 100 kPa, x2 = 0.5	1.317
318.15 K, 100 kPa, x2 = 0.6	1.04
318.15 K, 100 kPa, x2 = 0.7	0.823
318.15 K, 100 kPa, x2 = 0.8	0.665
318.15 K, 100 kPa, x2 = 0.9	0.545
323.15 K, 100 kPa, x2 = 0.1	3.119
323.15 K, 100 kPa, x2 = 0.1999	2.397
323.15 K, 100 kPa, x2 = 0.3	1.888
323.15 K, 100 kPa, x2 = 0.4	1.494
323.15 K, 100 kPa, x2 = 0.5	1.199
323.15 K, 100 kPa, x2 = 0.6	0.951
323.15 K, 100 kPa, x2 = 0.7	0.763
323.15 K, 100 kPa, x2 = 0.8	0.621
323.15 K, 100 kPa, x2 = 0.9	0.514
